Consider two compounds from US20190201578A1, “Biomaterial Implant” (The Johns Hopkins University, priority 2017, published 2019).

The subject of data set [1] is rat cornea wound. In words: cornea wound electric current and ion flux measured with vibrating probe. As to conditions: for cornea wound electric signal: 10 mM. The procedure:
In order to understand corneal wound healing, the spatiotemporal dynamics of rat cornea wound electric currents and ion flux using a vibrating probe were characterized. In particular, measurements of deeper wounds of approximately 100 microns in depth, penetrating the stroma, were analyzed. For both shallow and deep wounds, electric current and ion flux were maximized at the wound edge, minimized at the wound center, and reduced to normal (unwounded) values at a small distance outside the wound. Wound electric current was outward (i.e., outward transient outward flux of potassium which diminished rapidly and therefore appeared to be leakage). Small fluxes of calcium and sodium were also observed. The main ion flux appeared to be a large influx of chloride ions at the wound edge. Time lapse measurements of electric current in the hours after wounding indicate that the wound electric signal was long-lasting and appears to be actively-regulated. The wound electric signal increased rapidly until approximately 40 minutes after wounding and was maintained at a high level for several hours. FIGS. 9 and 10 show time lapse data for both a shallow (normal epithelial) wound and a deep (stromal) wound. In this regard, electric signals for a shallow depth wound and a deep wound were compared.
Furthermore, the epithelial wounds were manually made using a biopsy punch. To replicate a more traumatic cornea wound that penetrates both the epithelium and stroma, a Nidek EC-5000 excimer laser was used. The laser settings to obtain circular wounds were 2 mm in diameter and approximately 100 μm deep. We confirmed wound depth using optical coherence tomography (OCT). […] The laser application was performed by first chilling eyes in a saline ice bath prior to wounding, and then applying the laser in 10 second bursts, with 5 second rest in between to minimize laser damage outside the wound. […]
Wounds 3.5 mm in diameter that normally took 48 hours or more to completely heal were healed in 30 hours in the presence of these therapeutics. To ensure that the aminophylline has the same effect on deep wounds as shallow epithelial wounds, wound electric fields were measured using the vibrating probe with and without the presence of 1 and 10 mM aminophylline. […]
The effects of two distinct rehydrated collagen membranes (with a nominal thickness of 100 μm) on cornea wound electric signal were characterized. […] As the probe was moved away from the source of electric signal, the current detected fell exponentially.
The effect of physical presence of collagen membrane and probe distance from wound edge on the electric signal was tested. The probe was placed in measuring position as close as possible to the wound edge with the collagen membrane, and the electric signal was recorded. […]

For data set [2] the following is noted: cited from earlier work.
The test system of data set [3] is rat cornea wound. In words: cornea wound healing in the presence of therapeutics. Conditions: for time to heal: wounds 3.5 mm in diameter that normally took 48 hours or more. The procedure:
Furthermore, the epithelial wounds were manually made using a biopsy punch. To replicate a more traumatic cornea wound that penetrates both the epithelium and stroma, a Nidek EC-5000 excimer laser was used. The laser settings to obtain circular wounds were 2 mm in diameter and approximately 100 μm deep. We confirmed wound depth using optical coherence tomography (OCT). […] The laser application was performed by first chilling eyes in a saline ice bath prior to wounding, and then applying the laser in 10 second bursts, with 5 second rest in between to minimize laser damage outside the wound. […] The dynamic time course of the electric signal change in the hours after wounding was also similar to that of shallower wounds (see FIG. 9). Normal epithelial wounds 2 mm in diameter heal almost completely in 48 hours. Deep laser wounds took longer to heal than shallow epithelial wounds, but did heal 100% by day 8 (see FIG. 10).
Wounds 3.5 mm in diameter that normally took 48 hours or more to completely heal were healed in 30 hours in the presence of these therapeutics. To ensure that the aminophylline has the same effect on deep wounds as shallow epithelial wounds, wound electric fields were measured using the vibrating probe with and without the presence of 1 and 10 mM aminophylline. FIG. 11 illustrates the presence of aminophylline in the wound.
FIG. 12 illustrates wound healing of a deep wound (100 μm) without and with the presence of 1 mM aminophylline as function of time. In this regard, at 500, deep wound healing with and without the presence of aminophylline are shown. At 520, an OCT image of the control wound is shown. At 540, an OCT image with the presence of aminophylline in the wound is shown.
Furthermore, FIG. 13 illustrates the percentage of wound healing as a function of time for corneas treated with the bioelectric modulator aminophylline (1 mM).

Turning to `Cn1c(=O)c2[nH]cnc2n(C)c1=O` [aminophylline], in the data set on rat cornea wound [1], the “chloride flux at the wound” value is “significantly increases” and the “cornea wound electric signal” value is given as “significantly increase”. Further, in the data set on rat cornea wound [1] (deep wounds, 1 and 10 mM, FIG. 11), the wound electric field result is reported as “increase in the wound electric field”. Besides, the “log partition (log P) coefficient value” in data set [2] is −3.03. Moreover, in the data set with rat cornea wound [3], the cornea wound healing result was “significantly enhanced” and the time to heal was found to be 30 h. Moreover, in the data set on rat cornea wound [3] (deep wound 100 μm, 1 mM, FIG. 12), the “wound healing of a deep wound (OCT)” value was “faster than a control”.

Consider `O=C1O[C@H]([C@@H](O)CO)C(O)=C1O` [ascorbic acid], for which the “cornea wound electric signal” value with rat cornea wound [1] is “significantly increase”. In addition, in the data set on rat cornea wound [3], the cornea wound healing result is “significantly enhanced” and the time to heal was found to be 30 h.
